According to ChEMBL document CHEMBL6083178, “Chemistry and pharmacological aspects of furanoid cannabinoids and related compounds: Is furanoid cannabinoids open a new dimension towards the non-psychoactive cannabinoids?” (Eur J Med Chem, 2024):

Columns and labels:
Cannabinoid receptor 1 [1] = target: T1, Cannabinoid receptor 1 (Homo sapiens, UniProt P21554); test: Displacement of [3H]CP55940 from CB1 receptor (unknown origin) assessed as inhibition constant measured after 90 mins
Cannabinoid receptor 2 [2] = target: T2, Cannabinoid receptor 2 (Homo sapiens, UniProt P34972); test: Binding affinity to CB2 receptor (unknown origin) assessed as inhibition constant measured after 90 mins
Cannabinoid receptor 1 [3] = target: Cannabinoid receptor 1 (Mus musculus, UniProt P47746); test: Displacement of [3H]CP55940 from mouse brain CB1 receptor assessed as inhibition constant
Cannabinoid receptor 1 [4] = target: T1, Cannabinoid receptor 1; test: Displacement of [3H]CP55940 from human CB1 receptor assessed as inhibition constant
Cannabinoid receptor 2 [5] = target: T2, Cannabinoid receptor 2; test: Displacement of [3H]HU-243 from human CB2 receptor assessed as inhibition constant

T1 sequence (P21554 whole entry): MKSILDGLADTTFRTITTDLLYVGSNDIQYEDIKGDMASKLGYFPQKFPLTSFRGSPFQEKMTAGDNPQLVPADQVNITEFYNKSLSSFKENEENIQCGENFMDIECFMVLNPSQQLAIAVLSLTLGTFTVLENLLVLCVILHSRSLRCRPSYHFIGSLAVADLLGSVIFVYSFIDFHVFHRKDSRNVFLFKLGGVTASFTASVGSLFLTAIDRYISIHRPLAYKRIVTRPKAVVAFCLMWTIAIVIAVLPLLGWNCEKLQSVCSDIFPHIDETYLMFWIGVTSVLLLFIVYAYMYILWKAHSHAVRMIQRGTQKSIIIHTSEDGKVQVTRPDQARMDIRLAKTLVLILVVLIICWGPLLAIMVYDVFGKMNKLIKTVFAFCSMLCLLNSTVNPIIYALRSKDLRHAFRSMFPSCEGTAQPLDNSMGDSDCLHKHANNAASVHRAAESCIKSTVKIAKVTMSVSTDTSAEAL
T2 sequence (P34972 whole entry): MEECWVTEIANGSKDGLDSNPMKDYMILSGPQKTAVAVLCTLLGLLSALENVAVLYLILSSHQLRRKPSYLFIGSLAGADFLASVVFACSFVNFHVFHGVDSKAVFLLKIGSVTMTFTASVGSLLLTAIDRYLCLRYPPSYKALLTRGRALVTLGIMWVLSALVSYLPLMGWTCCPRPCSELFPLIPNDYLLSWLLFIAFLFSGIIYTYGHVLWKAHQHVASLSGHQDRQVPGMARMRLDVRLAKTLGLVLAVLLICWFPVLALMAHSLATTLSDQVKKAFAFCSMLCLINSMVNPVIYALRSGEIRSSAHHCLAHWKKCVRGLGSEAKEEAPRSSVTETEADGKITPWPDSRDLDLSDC
Chain of Cannabinoid receptor 1 (Mus musculus, UniProt P47746) (P47746 whole entry): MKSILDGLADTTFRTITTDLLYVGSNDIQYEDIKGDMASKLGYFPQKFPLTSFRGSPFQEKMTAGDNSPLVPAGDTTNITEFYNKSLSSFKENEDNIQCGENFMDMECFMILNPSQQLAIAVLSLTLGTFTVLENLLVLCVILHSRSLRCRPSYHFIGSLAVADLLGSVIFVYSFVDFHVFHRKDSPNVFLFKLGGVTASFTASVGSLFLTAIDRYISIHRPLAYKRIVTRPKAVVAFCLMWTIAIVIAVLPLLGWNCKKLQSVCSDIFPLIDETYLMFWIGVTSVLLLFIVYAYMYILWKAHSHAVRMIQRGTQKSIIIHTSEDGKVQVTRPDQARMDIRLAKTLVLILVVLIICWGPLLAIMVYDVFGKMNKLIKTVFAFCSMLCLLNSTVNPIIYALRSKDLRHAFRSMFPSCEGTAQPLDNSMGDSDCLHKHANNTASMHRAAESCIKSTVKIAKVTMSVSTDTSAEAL

CCCCCc1cc(O)c2c(c1)OC(C)(CCC=C(C)C)C=C2 (configuration not stated) [CANNABICHROMENE]
Ki (Cannabinoid receptor 1 [1]): 700 nM | Ki (Cannabinoid receptor 2 [2]): 200 nM

C=C(C)[C@@H]1CCC(C)=C[C@H]1c1c(O)cc(CCCCC)cc1O [CANNABIDIOL]
Ki (Cannabinoid receptor 1 [3]): 4400 nM

CCCCCc1cc(O)c(C/C=C(\C)CCC=C(C)C)c(O)c1 [CANNABIGEROL]
Ki (Cannabinoid receptor 1 [4]): 400 nM | Ki (Cannabinoid receptor 2 [5]): 100 nM

CCCCCc1cc(O)c2c(c1)OC(C)(C)c1ccc(C)cc1-2 [CANNABINOL]
Ki (Cannabinoid receptor 1 [4]): 100 nM

CCCc1cc(O)c2c(c1)OC(C)(C)[C@@H]1CCC(C)=C[C@@H]21 [TETRAHYDROCANNABIVARIN]
Ki (Cannabinoid receptor 1 [4]): 80 nM
